Assay results as given in paper PMC12408352, “Complete biosynthesis of salicylic acid from phenylalanine in plants” (Nature, 2025).

What was measured:
Type in all cases: biochemical
AIM1 (OsCHD), MBP-AIM1 = target: T1, AIM1 (OsCHD), MBP-AIM1 (Oryza sativa, UniProt Q8W1L6); test: product detection by LC-UV-MS; conditions: 0.5 mM CA-CoA, 1 mM NAD+, 100 mM Tris-HCl pH 7.5, MgCl2, KCl, pyruvate / lactate dehydrogenase, 30 °C
T1 construct: gene MFP; CDS from rice cDNA in pMAL-c2X, MBP fusion, E. coli BL21 (DE3), amylose resin
T1 sequence (Q8W1L6 1-726): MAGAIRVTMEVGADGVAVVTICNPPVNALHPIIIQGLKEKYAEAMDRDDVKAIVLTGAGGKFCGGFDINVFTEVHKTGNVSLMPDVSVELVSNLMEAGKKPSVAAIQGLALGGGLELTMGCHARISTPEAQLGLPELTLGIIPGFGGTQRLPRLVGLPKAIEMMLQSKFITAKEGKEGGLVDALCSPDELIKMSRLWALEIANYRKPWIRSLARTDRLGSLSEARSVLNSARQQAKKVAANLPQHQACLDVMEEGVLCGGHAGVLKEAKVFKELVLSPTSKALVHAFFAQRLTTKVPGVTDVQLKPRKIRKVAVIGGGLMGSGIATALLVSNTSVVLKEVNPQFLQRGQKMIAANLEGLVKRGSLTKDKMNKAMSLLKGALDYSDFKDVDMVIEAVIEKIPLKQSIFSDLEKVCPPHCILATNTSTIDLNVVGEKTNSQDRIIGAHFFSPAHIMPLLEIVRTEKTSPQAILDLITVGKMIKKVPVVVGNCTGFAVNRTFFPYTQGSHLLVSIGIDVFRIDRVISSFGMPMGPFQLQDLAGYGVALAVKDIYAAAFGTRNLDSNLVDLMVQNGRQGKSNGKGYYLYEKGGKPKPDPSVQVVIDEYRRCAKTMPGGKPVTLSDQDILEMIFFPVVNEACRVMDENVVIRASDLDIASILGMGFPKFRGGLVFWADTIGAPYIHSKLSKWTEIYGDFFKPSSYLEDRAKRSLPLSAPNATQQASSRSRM

PhCHD, MBP-PhCHD = target: T2, PhCHD, MBP-PhCHD (Petunia x hybrida, UniProt J9YIZ4); test: product detection by LC-UV-MS; conditions: positive control; AIM1 assay conditions, 0.5 mM CA-CoA, 1 mM NAD+, Tris-HCl pH 7.5, 30 °C
T2 construct: gene CHD; synthesized gene in pMAL-c5X, MBP fusion, E. coli BL21 (DE3), amylose resin
T2 sequence (J9YIZ4 1-724): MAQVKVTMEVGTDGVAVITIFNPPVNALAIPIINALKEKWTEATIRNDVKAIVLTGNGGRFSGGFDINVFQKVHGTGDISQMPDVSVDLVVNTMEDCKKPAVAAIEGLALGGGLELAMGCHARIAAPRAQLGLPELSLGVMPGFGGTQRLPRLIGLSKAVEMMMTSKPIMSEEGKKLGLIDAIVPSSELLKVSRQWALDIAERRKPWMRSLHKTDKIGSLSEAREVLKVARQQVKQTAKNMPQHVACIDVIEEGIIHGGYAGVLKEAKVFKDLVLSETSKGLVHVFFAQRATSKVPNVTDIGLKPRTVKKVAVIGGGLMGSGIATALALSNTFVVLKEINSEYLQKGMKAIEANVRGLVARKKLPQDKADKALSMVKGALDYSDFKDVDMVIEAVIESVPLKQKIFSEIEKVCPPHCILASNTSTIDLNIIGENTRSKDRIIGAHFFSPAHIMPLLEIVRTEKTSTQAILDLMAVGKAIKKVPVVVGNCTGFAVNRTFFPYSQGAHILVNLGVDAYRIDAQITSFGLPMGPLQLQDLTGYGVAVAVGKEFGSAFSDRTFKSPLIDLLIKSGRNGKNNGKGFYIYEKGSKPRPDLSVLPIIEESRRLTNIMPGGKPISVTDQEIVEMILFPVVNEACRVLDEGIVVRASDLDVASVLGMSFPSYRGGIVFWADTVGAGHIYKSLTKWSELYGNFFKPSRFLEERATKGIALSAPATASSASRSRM

OSD3, Flag-OSD3 = target: T3, OSD3, Flag-OSD3 (Oryza sativa, UniProt Q69P73); test: product detection by LC-UV-MS, yeast microsomes; conditions: 50 µM BB, 5 mM NADPH, 80 mM sodium phosphate pH 7.0, 5 mM DTT, 30 °C
T3 construct: gene Os09g0441400; Flag fusion in pESC-URA, microsomes of yeast strain WAT11
T3 sequence (Q69P73 1-514): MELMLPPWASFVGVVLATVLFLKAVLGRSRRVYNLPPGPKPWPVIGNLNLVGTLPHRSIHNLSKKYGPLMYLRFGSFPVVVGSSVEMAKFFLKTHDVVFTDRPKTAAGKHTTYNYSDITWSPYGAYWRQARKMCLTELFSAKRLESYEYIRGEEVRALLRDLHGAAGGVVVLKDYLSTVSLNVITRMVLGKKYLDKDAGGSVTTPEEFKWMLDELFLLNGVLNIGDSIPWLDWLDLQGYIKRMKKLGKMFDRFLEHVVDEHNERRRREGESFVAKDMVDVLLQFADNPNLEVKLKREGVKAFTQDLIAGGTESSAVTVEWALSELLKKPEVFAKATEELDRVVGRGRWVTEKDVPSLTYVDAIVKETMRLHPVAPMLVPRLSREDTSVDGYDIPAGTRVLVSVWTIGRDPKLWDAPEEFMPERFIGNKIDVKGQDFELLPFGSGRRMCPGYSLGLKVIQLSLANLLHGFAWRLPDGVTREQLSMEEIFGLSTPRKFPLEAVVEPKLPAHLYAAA

Compound | product detection by LC-UV-MS (AIM1 (OsCHD), MBP-AIM1) | product detection by LC-UV-MS (PhCHD, MBP-PhCHD) | product detection by LC-UV-MS, yeast microsomes (OSD3, Flag-OSD3)
CC(C)(COP(=O)(O)OP(=O)(O)OC[C@H]1O[C@@H](n2cnc3c(N)ncnc32)[C@H](O)[C@@H]1OP(=O)(O)O)[C@@H](O)C(=O)NCCC(=O)NCCSC(=O)CC(=O)c1ccccc1 [benzoylacetyl-CoA] | confirming the product of AIM1 as BAc-CoA | used it to produce a BAc-CoA standard | –
O=C(OCc1ccccc1)c1ccccc1 [benzyl benzoate] | – | – | OSD3 acts as a benzyl benzoate 2-hydroxylase (BB2H) to catalyse the hydroxylation of BB
O=C(OCc1ccccc1)c1ccccc1O [benzyl salicylate] | – | – | to catalyse the hydroxylation of BB, yielding BS
CC(C)(COP(=O)(O)OP(=O)(O)OC[C@H]1O[C@@H](n2cnc3c(N)ncnc32)[C@H](O)[C@@H]1OP(=O)(O)O)[C@@H](O)C(=O)NCCC(=O)NCCSC(=O)/C=C/c1ccccc1 [cinnamoyl-CoA] | AIM1 functions as a CA-CoA hydratase-dehydrogenase for converting CA-CoA to BAc-CoA | The MBP–PhCHD enzyme was used as a positive control | –
